Measurements: patent US9932339B2, “Helquats with heteroaromatic substituents, preparation thereof, and use thereof as G-quadruplex stabilizers” (USTAV ORGANICKE CHEMIE A BIOCHEMIE AV CR, V.V.I., priority 2014, dated 2018)

How the values were obtained:
c-myc protein = experiment: Immunodetection of protein c-myc in HGC-27 cell lysates (Western blot); type: cell-based, human; conditions: 50 μmol · l^−1, 24 hour incubation, normalized to β-actin
Protocol: Determination of changes in c-myc protein expression (transcription factor) in cell lysates prepared from tumor cell line HGC-27 after treatment with test helquats (Tab. 7) was carried out by immunodetection after separation of proteins according to their size by gel electrophoresis (SDS-PAGE) and blotting.
To determine the influence helquats on expression of c-myc protein, the cells were cultured under standard conditions and in the exponential growth phase were seeded into flasks at a density of 25,000 cells/cm^2. The next day selected helquats were added at a concentration of 50 μmol·l^−1. After 24 hour incubation, the cell pellets were obtained and, after addition of RIPA buffer with protease inhibitors (PrIC) and phosphatases (PhIC) (for composition see Tab. 8) cell lysates were prepared. 150 μl of RIPA buffer was used for 10^7 cells. Protein concentrations in the lysates were measured by BCA method. Separation of proteins in the lysates was carried out on a 12% denaturing polyacrylamide gel. The separated proteins were transferred to PVDF membrane by Western blotting.
Incubation with primary mouse monoclonal antibody against the protein c-myc (dilution 1:1000 in “SignalBoost” reagent) was carried out overnight at 4° C., and then with the primary mouse anti-β-actin (1:5000 dilution in 5% milk in TBS-T buffer) at room temperature for 2 hours. Subsequently, the secondary horse monoclonal antibody conjugated to horseradish peroxidase (diluted 1:2000 in 5% milk in TBS-T buffer) binding to mouse IgG antibody was applied. C-myc proteins and β-actin bound to the membrane were visualized using detection kit (SuperSignal® West Femto Maximum Sensitivity Substrate, Cat. No. 34095, Thermo Fisher Scientific, Inc., USA) in the chemiluminescence detection system ImageQuant LAS 4000 Mini (Cat. No. 28-9558-13, GE Healthcare Life Sciences, USA). The amount of protein was quantified by densitometry in Quantity One software. The amount of c-myc in the samples was normalized to β-actin, and subsequently related to a control sample.

[1] = tested on: G-quadruplex oligonucleotide Fmyc27T (NHE III1 promoter region of c-myc oncogene); experiment: FRET melting of G-quadruplex oligonucleotide Fmyc27T with ligands; type: binding; conditions: for ΔTm (° C.) Fmyc27T/ds26 (° C.): helquat 1 μmol·l^−1, oligonucleotide 0.2 μmol·l^−1, 50-fold excess of double-stranded competitor ds26; for ΔTm (° C.) Fmyc27T: helquat 1 μmol·l^−1, oligonucleotide 0.2 μmol·l^−1, without competitor
From the text: (§1) To determine the degree of in vitro interactions of helquats with G-quadruplex(es), the oligonucleotides containing the guanine-rich sequences of human telomere (F21T) and NHE III1 promoter region of c-myc oncogene (Fmyc27T) were used. Both oligonucleotides capable of forming an intramolecular G-quadruplex were end-labeled with suitable fluorophores so as to form donor-acceptor FRET pair (5′-FAM and 3′-TAMRA). If the oligonucleotide is folded into the structure of the G-quadruplex, donor is in close proximity of acceptor and radiationless energy transfer to the acceptor occurs. With increasing temperature of the reaction mixture G-quadruplex structure gradually denatures and thus the donor and acceptor (FAM-TAMRA) drift apart. This leads to an increase in fluorescence of donor (FAM) and a decrease in fluorescence of acceptor (TAMRA).
(§2) The result of measurement is the curve of dependence of the intensity of fluorescence of the donor on the temperature. If the G-quadruplex is stabilized by ligand, melting temperature will increase. Melting temperature of G-quadruplex corresponds to the temperature when 50% of the original amount of the folded G-quadruplex is denatured. The measurement outcome is the difference in the melting temperatures (ΔTm) of the G-quadruplex alone and the G-quadruplex stabilized by ligand. In case of Fmyc27T experiments were performed in cacodylate buffer (10 mmol·l^−1, pH=7.2) with KCl (5 mmol·l^−1) and LiCl (95 mmol·l^−1) oligonucleotide and in case of F21T oligonucleotide in cacodylate buffer (10 mmol·l^−1, pH=7.2) with KCl (25 mmol·l^−1) and LiCl (75 mmol·l^−1).
(§3) Both oligonucleotides were denatured for 5 minutes at 95° C. and subsequently allowed to cool to room temperature (3 hours) in the switched-off thermoblock. The final oligonucleotide concentration in the reaction mixture was 0.2 μmol·l^−1. Test helquats were present at concentrations of 1 μmol·l^−1. The total reaction volume was 30 μl. The melting temperature of the oligonucleotides alone (without the presence of helquats) under these conditions was 58.1±0.2° C. for F21T and 64.7±0.4° C. for Fmyc27T. For determining the selectivity of binding of helquats to G-quadruplex in comparison with the double-stranded DNA, 50-fold excess of double-stranded DNA ([…] unlabeled competitor ds26 forming a hairpin) is added to the reaction mixture. After the addition to the reaction mixture ds26 competes with labeled oligonucleotide (Fmyc27T or F21T) for ligand binding. […] Melting temperature of oligonucleotides alone in the presence of the competitor is 59.4±0.5° C. for F21T and 66.3° C.±0.6° C. for Fmyc27T.
(§4) Fluorescence of FAM donor was measured using real-time PCR apparatus Opticon 2 (excitation 470-505 nm and emission 523-543 nm) in temperature increments of 0.5° C. in the range 25 to 95° C. Evaluation of the sigmoid curves of fluorescence intensity dependent on the temperature were performed in GraphPad Prism 5 (GraphPad Software, Inc., USA). Using nonlinear five parametric regression the inflection point on the curve was calculated that corresponds to the melting temperature (Tm) of the G-quadruplex under the given conditions. The values were obtained from at least three independent measurements.

[2] = tested on: G-quadruplex oligonucleotide F21T (human telomere); experiment: FRET melting of G-quadruplex oligonucleotide F21T with ligands; type: binding; conditions: for ΔTm (° C.) F21T/ds26: helquat 1 μmol·l^−1, oligonucleotide 0.2 μmol·l^−1, 50-fold excess of double-stranded competitor ds26; for ΔTm (° C.) F21T: helquat 1 μmol·l^−1, oligonucleotide 0.2 μmol·l^−1, without competitor
From the text: as §1, §2, §3, §4

[3] = tested on: G-quadruplex in promoter region of the c-myc gene (NHE III1 segment); experiment: Dual luciferase analysis with plasmid pGL4.10-myc (luc2) in HGC-27 cells; type: cell-based, human; conditions: Homo sapiens; for inhibition at 50 µM: HGC-27, text summary of tab. 5 (50 μmol·l^−1), read-out: inhibition of expression of firefly luciferase as compared to control; for activity at 50 µM: helquat 50 μmol · l^−1, HGC-27, firefly normalized to Renilla, 24 hours after transfection, read-out: luciferase expression relative to control (control = 100%)
From the text: A dual luciferase analysis was used to determine the degree of stabilization of G-quadruplex in a promoter region of the c-myc gene on cellular level. Stabilization of G-quadruplex is expressed as the ratio of expression of two luciferases (firefly and Renilla) from the co-transfected vectors pGL4.10-myc (luc2) and pRL-TK (Renilla) into a cell line HGC-27 expressing c-myc protein. Expression of the reporter gene (firefly luciferase) from pGL4.10-myc vector is controlled by the c-myc regulatory region of a length of 860 by (in the range from −306 to +554). The inserted sequence contains NHE III1 segment which forms G-quadruplex [Yang, D. et al. (2010) Future Med Chem., 2, 619], and is responsible for as much as 90% of the transcriptional activity of the c-myc gene.
Level of expression of firefly luciferase reporter gene corresponds to promoter activity of c-myc and thus to the degree of stabilization of the G-quadruplex. The signal is normalized to Renilla luciferase expression from pRL-TK vector under the control of a constitutive viral thymidine kinase (HSV-TK) promoter. The amount of Renilla luciferase expression serves as an internal control for normalization of firefly signal on transfection efficiency in the sample. Plasmids pGL4.10-myc (luc2) and pRL-TK were propagated in Escherichia coli (DH5α strain) and purified using the Qiagen Plasmid Mini and Midi kits. Cells were cultured under standard conditions and in exponential growth phase were seeded into a white 96-well microtiter plates. Transfection was carried out using a transfection reagent X-tremeGENE HP DNA in OptiMEM media for two hours. The ratio of reporter and control vector was 1:1 and the ratio of transfection reagent to the total amount of DNA was 1:1. Two hours after transfection helquats were added in a concentration of 50 μmol·l^−1. Quantity of firefly and Renilla luciferases in the samples was determined 24 hours after transfection. Dual luciferase analysis was performed using a commercially available kit (Promega, cat. No. E1960) according to manufacturer's instructions. Luminescence was measured using a luminometer EnSpire Alpha Plate Reader. The data obtained were normalized to the Renilla luciferase signal and then the values were related to control.

Compound | c-myc protein expression relative to control (control = 100%) (c-myc protein) | ΔTm (° C.) Fmyc27T/ds26 (° C.) [1] | ΔTm (° C.) Fmyc27T [1] | ΔTm (° C.) F21T/ds26 [2] | ΔTm (° C.) F21T [2] | inhibition at 50 µM [3] | activity at 50 µM [3]
Cc1c(C)c2c(c3c1CC[n+]1ccc(/C=C/c4ccc(-n5c6ccccc6c6ccccc65)cc4)cc1-3)-c1c3ccccc3cc[n+]1CC2.O=S(=O)([O-])C(F)(F)F.O=S(=O)([O-])C(F)(F)F [MJA-C19-4, (E)-13-(4-(9H-carbazol-9-yl)styryl)-6,7-dimethyl-4,5,8,9-tetrahydroisoquinolino[1,2-a]pyrido[1,2-k][2,9]phenanthroline-3,10-diium trifluoromethanesulfonate] | 81% |  |  |  |  |  | 
2,4,15,17-tetra((E)-(2-(1-methyl-1H-indol-2-yl)vinyl)-6,7,8,11,12,13-hexahydrodipyrido[1,2-a:1′,2′-a′]benzo[2,1-c:3,4-c′]bisazepindiium trifluoromethanesulfonate [PRC-C10-10] | 71% |  |  |  |  |  | 
Cc1c(C)c2c(c3c1CC[n+]1ccc(/C=C/c4c(-c5ccccc5)[nH]c5ccccc45)cc1-3)-c1cc(/C=C/c3c(-c4ccccc4)[nH]c4ccccc34)cc[n+]1CC2 [PDB-C15-8, 8,9-dimethyl-2,15-bis((E)-2-(2-phenyl-1H-indol-3-yl)vinyl)-6,7,10,11-tetrahydrodipyrido[2,1-a:1′,2′-k][2,9]phenanthroline-5,12-diium trifluoromethanesulfonate] |  | 14.5 °C | 15.7 °C | 11.1 °C | 11.3 °C |  | 
C(=C\c1cc(/C=C/c2ccsc2)[n+]2c(c1)-c1c(ccc3c1-c1cc(/C=C/c4ccsc4)cc(/C=C/c4ccsc4)[n+]1CCC3)CCC2)/c1ccsc1 (racemic) [PRC-C5-9, (rac)-2,4,13,15-tetrakis((E)-2-(thiophen-3-yl)vinyl)-6,7,8,11,12,13-hexahydro-dipyrido[1,2-a;1′,2′-a′]benzo[2,1-c:3,4-c′]bisazepindiium trifluoromethanesulfonate] | 34% |  |  |  |  |  | 
Brc1ccc2[nH]cc(/C=C/c3cc[n+]4c(c3)-c3c(ccc5c3-c3cc(/C=C/c6c[nH]c7ccc(Br)cc67)cc[n+]3CC5)CC4)c2c1.O=S(=O)([O-])C(F)(F)F.O=S(=O)([O-])C(F)(F)F [PDA-C9-30, 2,15-bis((E)-2-(5-bromo-1H-indol-3-yl)vinyl)-6,7,10,11-tetrahydrodipyrido[2,1-a:1′,2′-k][2,9]phenanthroline-5,12-diium trifluoromethanesulfonate] |  | 16.0 °C | 14.6 °C | 13.1 °C | 12.3 °C |  | 
CCCCCCc1ccc(/C=C/c2cc[n+]3c(c2)-c2c(c(C)c(C)c4c2-c2c5ccccc5cc[n+]2CC4)CC3)s1.O=S(=O)([O-])C(F)(F)F.O=S(=O)([O-])C(F)(F)F [MJA-C11-25, (E)-13-(2-(5-hexylthiophen-2-yl)vinyl)-6,7-dimethyl-4,5,8,9-tetrahydroisoquinolino[1,2-a]pyrido[1,2-k][2,9]phenanthroline-3,10-diium trifluoromethanesulfonate] | 66% |  |  |  |  |  | 
Cn1cc(/C=C/c2cc[n+]3c(c2)-c2c(ccc4c2-c2cc(/C=C/c5cn(C)c6ccccc56)cc[n+]2CC4)CC3)c2ccccc21 [PDA-C10-13, 2,15-bis((E)-2-(1-methyl-1H-indol-3-yl)vinyl)-6,7,10,11-tetrahydrodipyrido[2,1-a:1′,2′-k][2,9]phenanthroline-5,12-diium trifluoromethanesulfonate] |  | 13.6 °C | 13.8 °C | 9.1 °C | 9.7 °C |  | 
COc1ccc(/C=C/c2cc[n+]3c(c2)-c2c(ccc4c2-c2cc(/C=C/c5ccc(OC)nc5OC)cc[n+]2CC4)CC3)c(OC)n1 [PDA-C8-27, 2,15-bis((E)-2-(2,6-dimethoxypyridin-3-yl)vinyl)-6,7,10,11-tetrahydrodipyrido[2,1-a:1′,2′-k][2,9]phenanthroline-5,12-diium trifluoromethanesulfonate] |  | 9.6 °C | 11.8 °C | 7.0 °C | 9.3 °C | > 20% | 77%
COc1ccc(/C=C/c2cc[n+]3c(c2)-c2c(c(C)c(C)c4c2-c2cccc(/C=C/c5ccc(OC)nc5OC)[n+]2CC4)CC3)c(OC)n1.O=S(=O)([O-])C(F)(F)F.O=S(=O)([O-])C(F)(F)F [MJB-C8-27, 2,13-bis((E)-2-(2,6-dimethoxypyridin-3-yl)vinyl)-8,9-dimethyl-6,7,10,11-tetrahydrodipyrido[2,1-a:1′,2′-k][2,9]phenanthroline-5,12-diium trifluoromethanesulfonate] |  | 10.0 °C | 9.7 °C | 5.2 °C | 8.0 °C | > 10% | 88%
